59 compounds from patent US20190223437A1, “ACTIVE COMPOUND COMBINATIONS COMPRISING A 5-SUBSTITUTED IMIDAZOLE DERIVATIVE” (BAYER CROPSCIENCE AKTIENGESELLSCHAFT, priority 2016, published 2019) can be followed below.

Marks after values point to notes of the source that are not given here.

Test system in the first data set: not listed separately
Description: Example G: in vivo ecotoxicity screening test on fish (Danio rerio). The following applies: Danio rerio, in vivo, other: exposure of embryos in water containing the compound. As for the experimental part: with ECxi the Effect Concentration (EC) of each chemical i (in ppm) causing x % effect on the ecotoxicity test endpoint.
For each compound combination, the predicted ECx value is calculated. It is then compared to an experimentally measured value. The ratio of predicted versus measured effect for the combination (thereafter called the Model Deviation Ratio or MDR) is then calculated.
The environmental effect of the compound combinations was measured experimentally in laboratory ecotoxicity screening studies with fish (Danio rerio). […] Mortality was recorded after 48 h and 96 h for each tested concentration and a reference control. […] Then, the MDR values were calculated.
This concentrate is then diluted with water to the desired a.i. concentration, leading to a maximal solvent concentration of 0.5%. by weight The compounds alone and the combinations were tested for five increasing concentrations comprised between 0.01 and 1000 ppm (mg/1) a.i., (e.g. 0.1, 1.0, 10 and 100 ppm a.i). For the combinations, compounds A and B were mixed in a weight ratio of 5:1 to 1:5 and five increasing concentrations were tested for each ratio.
A word on the LC50: it is the concentration lethal to half of the exposed cells or organisms. For `O=C(Nc1ccccc1)N(Cc1ccc(Cl)cc1)C1CCCC1` [Example 4.005, pencycuron], the LC50 at 48 h is above 200 µg/mL and the LC50 at 96 h is above 200 µg/mL.
As for `OC(Cc1ccccc1Cl)(Cn1nc[nH]c1=S)C1(Cl)CC1` (stereo not shown) [Example 1.018, prothioconazole], the LC50 at 48 h was 9.49 µg/mL and the median lethal concentration (LC50) at 96 h was determined as 3.16 µg/mL.
In the same order, the values of `CC(C)(C)[C@@H](O)[C@@H](Cc1ccc(Cl)cc1)n1cncn1` (racemic) [Example 1.015, paclobutrazol] are 99.8 µg/mL and 56.5 µg/mL.
The like results for `CON=C(C(=O)OC)c1ccccc1CON=C(C)c1cccc(C(F)(F)F)c1` [Example 3.020, trifloxystrobin] were, in that order, 0.4 µg/mL and 0.24 µg/mL.
In the same order, the values of `CC(C)c1ccc(Cl)cc1CN(C(=O)c1c(C(F)F)nn(C)c1F)C1CC1` [Example 2.038, N-(5-chloro-2-isopropylbenzyl)-N-cyclopropyl-3-(difluoromethyl)-5-fluoro-1-methyl-1H-pyrazole-4-carboxamide] are 0.51 µg/mL and 0.35 µg/mL.
With `N#Cc1c[nH]cc1-c1cccc2c1OC(F)(F)O2` [Example 13.001, fludioxonil], the LC50 at 48 h turned out to be 0.91 µg/mL and the LC50 at 96 h came out at 0.89 µg/mL.
In the same order, the values of `CC(C)C1CCC(Cc2ccc(Cl)cc2)C1(O)Cn1cncn1` (stereo not shown) [Example 1.012, ipconazole] are 13.8 µg/mL and 6.57 µg/mL.
In the same order, the values of `O=C(Cc1ccccc1)N/C(=N\OCC1CC1)c1c(C(F)(F)F)ccc(F)c1F` [Example 15.008, cyflufenamid] are 9.71 µg/mL and 5.2 µg/mL.
In the same order, the values of `CC(C)(C)C(O)(CCc1ccc(Cl)cc1)Cn1cncn1` (stereo not shown) [Example 1.021, tebuconazole] are 19.7 µg/mL and 19.7 µg/mL.

Test system in another data set: not listed separately
Nature of the data set: Measurement of Log P values by HPLC on reversed phase columns (EEC directive 79/831 Annex V.A8). Type of data set: physicochemical.
Conditions: not given
Turning to `N#Cc1cncn1CC(O)(Cc1ccncc1C(F)(F)F)C1(Cl)CC1` (racemic) [Example I-92], the LogP is 2.18^[a].
Same read-out and setting: for `OC(Cc1ccc(Cl)cc1F)(Cn1cncc1Cl)C1(Cl)CC1` (single isomer, unassigned) [Example I-113] the value was 2.54^[a].
Same read-out and setting: under `OC(Cc1cc(Cl)nc(Cl)c1)(Cn1cncc1Cl)C1(Cl)CC1` (racemic) [Example I-74] stands 2.23^[a]; under `N#Cc1cncn1CC(O)(Cc1ccc(F)cc1)C1(Cl)CC1` (stereo not shown) [Example I-157], 2.75^[a].
The same measure, in the same setting: for `N#Cc1cncn1CC(O)(Cc1ccc(Br)cc1F)C1(Cl)CC1` (racemic) [Example I-42] the value was 3.24^[a]; for `N#Cc1cncn1CC(O)(Cc1cc(F)ncc1Cl)C1(Cl)CC1` (stereo not shown) [Example I-165], 2.38^[a].
Regarding `CC(C)C(O)(Cc1ccc(F)cc1)Cn1cncc1C#N` (stereo not shown) [Example I-162], the LogP is 2.44^[a].
Still for that read-out and setting: under `N#Cc1cncn1CC(O)(Cc1ccc(F)cc1)C1CCC1` (stereo not shown) [Example I-160] stands 2.56^[a].
Same read-out and setting: under `N#Cc1cncn1CC(O)(Cc1ccccc1Cl)C1CC1` (racemic) [Example I-80] stands 2.57^[a]; under `CC(C)(C)CC(O)(Cc1ccc(Cl)cc1)Cn1cncc1C#N` (racemic) [Example I-86], 3.37^[a]; under `OC(Cn1cncc1Br)(C(F)c1ccccc1Cl)C1(Cl)CC1` (stereo not shown) [Example I-23], 2.32^[a].
For `N#Cc1cncn1CC(O)(Cc1cccc(Cl)c1Cl)C1CCC1` (racemic) [Example I-85], the LogP is 3.31^[a].
As for `CC(C)C(O)(Cc1ccc(F)c(F)c1F)Cn1cncc1C#N` (stereo not shown) [Example I-105], the LogP was 2.78^[a].
Regarding `OC(Cc1ccncc1F)(Cn1cncc1Cl)C1(Cl)CC1` (stereo not shown) [Example I-164], the LogP was 1.46^[a].
The same measure, in the same setting: for `COC(Cc1ccc(Cl)cc1F)(Cn1cncc1C#N)C1CC1` (stereo not shown) [Example I-121] the value was 3.31^[a].
Still for that read-out and setting: under `CC(C)C(O)(Cc1ccc(Cl)cc1F)Cn1cncc1C#N` (stereo not shown) [Example I-118] stands 2.91^[a]; under `N#Cc1cncn1CC(O)(Cc1ccncc1Cl)C1(Cl)CC1` (racemic) [Example I-57], 1.88^[a]; under `N#Cc1cncn1CC(O)(Cc1ccc(F)c(F)c1F)C1CCC1` (stereo not shown) [Example I-104], 2.78^[a].
Same read-out and setting: for `CSc1cncn1CC(O)(Cc1ccccc1Cl)C1(Cl)CC1` (stereo not shown) [Example I-22] the value was 2.08^[a].
Consider `OC(Cc1ccccc1Cl)(Cn1cncc1Br)C1(Cl)CC1` (stereo not shown) [Example I-04], for which the LogP is 2.27^[a].
`N#Cc1cncn1CC(O)(Cc1ccc(F)cc1Cl)C1(Cl)CC1` (stereo not shown) [Example I-154]: the LogP was 3.00^[a].
For `OC(Cc1ccc(Br)cc1F)(Cn1cncc1Cl)C1(Cl)CC1` (racemic) [Example I-44], the LogP is 2.64^[a].
Same read-out and setting: under `N#Cc1cncn1CC(O)(Cc1ccnc(Cl)c1Cl)C1(Cl)CC1` (racemic) [Example I-50] stands 2.47^[a]; under `N#Cc1cncn1CC(O)(Cc1cccc(Cl)c1Cl)C1(Cl)CC1` (racemic) [Example I-49], 3.25^[a].
Still for that read-out and setting: for `N#Cc1cncn1CC(O)(Cc1ccccc1F)C1CCC1` (stereo not shown) [Example I-137] the value was 2.46^[a]; for `N#Cc1cncn1CC(O)(Cc1ccc(Cl)cc1F)C1(F)CC1` (racemic) [Example I-96], 2.78^[a].
Still for that read-out and setting: for `COC(=O)c1cncn1CC(O)(Cc1ccccc1Cl)C1(Cl)CC1` (stereo not shown) [Example I-01] the value was 2.82^[a]; for `OC(Cc1ccccc1)(Cn1cncc1Cl)C1(Cl)CC1` (racemic) [Example I-39], 2.04^[a].
In the case of `N#Cc1cncn1CC(O)(Cc1ccccc1I)C1(Cl)CC1` (stereo not shown) [Example I-166], the LogP is 3.13^[a].
The same measure, in the same setting: under `CCOC(=O)c1cncn1CC(O)(Cc1ccccc1F)C1(Cl)CC1` (stereo not shown) [Example I-135] stands 2.73^[a]; under `N#Cc1cncn1CC(O)(Cc1cc(Br)ncc1Br)C1(Cl)CC1` (racemic) [Example I-47], 2.73^[a].
As to `N#Cc1cncn1CC(O)(Cc1ccnnc1Cl)C1(Cl)CC1` (stereo not shown) [Example I-168], the LogP was 1.59^[a].
On the same count and under the same terms, for `CCOC(Cc1ccc(Cl)cc1F)(Cn1cncc1Cl)C1(Cl)CC1` (stereo not shown) [Example I-122] the value was 3.10^[a]; for `CC(C)C(O)(Cc1ccccc1Cl)Cn1cncc1C#N` (racemic) [Example I-82], 2.67^[a]; for `OC(Cc1ccccc1F)(Cn1cncc1C1CC1)C1(Cl)CC1` (racemic) [Example I-37], 1.86^[a].
On the same count and under the same terms, for `N#Cc1cncn1CC(O)(Cc1cc(Cl)ncc1Cl)C1(Cl)CC1` (racemic) [Example I-56] the value was 2.62^[a]; for `Cc1cncn1CC(O)(C(F)c1ccccc1Cl)C1(Cl)CC1` (stereo not shown) [Example I-13], 1.75^[a]; for `OC(Cn1cncc1Cl)(C(F)c1ccccc1Cl)C1(Cl)CC1` (stereo not shown) [Example I-05], 2.17^[a].
Same read-out and setting: for `CC(C)C(O)(Cc1ccc(F)cc1F)Cn1cncc1C#N` (stereo not shown) [Example I-128] the value was 2.52^[a]; for `OC(Cc1ccncc1Cl)(Cn1cncc1Cl)C1(Cl)CC1` (racemic) [Example I-72], 1.52^[a].
As for `OC(Cc1c(Cl)ccnc1Cl)(Cn1cncc1Cl)C1(Cl)CC1` (stereo not shown) [Example I-11], the LogP was 2.02^[a].
On the same count and under the same terms, for `N#Cc1cncn1CC(O)(Cc1cccc(F)c1F)C1CCC1` (stereo not shown) [Example I-148] the value was 2.57^[a].
Same read-out and setting: for `CC(C)(C)CC(O)(Cc1ccccc1Cl)Cn1cncc1C#N` (racemic) [Example I-83] the value was 3.55^[a]; for `OC(Cc1cccnc1Cl)(Cn1cncc1Cl)C1(Cl)CC1` (stereo not shown) [Example I-07], 1.57^[a]; for `Nc1cncn1CC(O)(Cc1ccccc1Cl)C1(Cl)CC1` (racemic) [Example I-78], 1.50^[a].
The same measure, in the same setting: under `OC(Cc1cccc(F)c1F)(Cn1cncc1Cl)C1(Cl)CC1` (stereo not shown) [Example I-147] stands 2.17^[a].

Still in this data set, the particulars now being: method [a]: LC-UV, acidic range, 0.1% formic acid in water and acetonitrile as eluent; Table 1, compounds of formula (I).
On to `N#Cc1cncn1CC(O)(Cc1ccc(-c2ccccc2)cc1)C1(Cl)CC1` (racemic) [Example I-63], for which the LogP is 3.68^[a].

The same data set, now with this note: reversed phase HPLC column; method [a]: LC-UV, acidic range, 0.1% formic acid in water and acetonitrile as eluent; Table 1, compounds of formula (I).
What is called chromatographic logP is lipophilicity estimated from chromatographic retention. A higher chromatographic logP goes with higher lipophilicity. In the case of `N#Cc1cncn1C[C@@](O)(Cc1ccccc1F)C1(Cl)CC1` [Example I-133, 1-[(2S)-2-(1-chlorocyclopropyl)-3-(2-fluorophenyl)-2-hydroxypropyl]-1H-imidazole-5-carbonitrile], the chromatographic logP was 2.59.
On the same count and under the same terms, under `N#Cc1cncn1C[C@](O)(Cc1ccccc1F)C1(Cl)CC1` [Example I-132, 1-[(2R)-2-(1-chlorocyclopropyl)-3-(2-fluorophenyl)-2-hydroxypropyl]-1H-imidazole-5-carbonitrile] stands 2.59.

In the next data set the test system is causal agent of soybean rust (Phakopsora pachyrhizi). Description: Example C: in vivo preventive test on Phakopsora test (soybeans). The following applies: 1 ppm a.i., compound alone.
For `CC(C)c1ccc(Cl)cc1CN(C(=O)c1c(C(F)F)nn(C)c1F)C1CC1` [Example 2.038, N-(5-chloro-2-isopropylbenzyl)-N-cyclopropyl-3-(difluoromethyl)-5-fluoro-1-methyl-1H-pyrazole-4-carboxamide], the “Efficacy in % found” value is 0%.

The data set is the same for the next values; noted with them: 2 ppm a.i., compound alone.
As for `CC(C)c1ccc(Cl)cc1CN(C(=O)c1c(C(F)F)nn(C)c1F)C1CC1` [Example 2.038, N-(5-chloro-2-isopropylbenzyl)-N-cyclopropyl-3-(difluoromethyl)-5-fluoro-1-methyl-1H-pyrazole-4-carboxamide], the “Efficacy in % found” value was 0%.

The same data set, now with this note: 4 ppm a.i., compound alone.
As for `CC(C)c1ccc(Cl)cc1CN(C(=O)c1c(C(F)F)nn(C)c1F)C1CC1` [Example 2.038, N-(5-chloro-2-isopropylbenzyl)-N-cyclopropyl-3-(difluoromethyl)-5-fluoro-1-methyl-1H-pyrazole-4-carboxamide], the “Efficacy in % found” value is listed as 0%.

The data set is the same for the next values; noted with them: 5 ppm a.i., compound alone.
Regarding `O=C(NCCc1ncc(C(F)(F)F)cc1Cl)c1ccccc1C(F)(F)F` [2.005 fluopyram], the “Efficacy in % found” value was 0%.

Still in this data set, the particulars now being: 10 ppm a.i., compound alone.
For the compound `O=C(NCCc1ncc(C(F)(F)F)cc1Cl)c1ccccc1C(F)(F)F` [2.005 fluopyram], the “Efficacy in % found” value is on record as 0%.

The data set is the same for the next values; noted with them: 20 ppm a.i., compound alone.
In the case of `O=C(NCCc1ncc(C(F)(F)F)cc1Cl)c1ccccc1C(F)(F)F` [2.005 fluopyram], the “Efficacy in % found” value is 0%.
